Assay [1] deals with TH and α-synuclein. The experiment in a line: Western blot of TH and α-synuclein in ST and SN of MPTP-impaired mice. It counts as in vivo, mice (C57BL/6j). As to conditions: for α-synuclein level: vs MPTP-treated mice; for TH level: MPTP mice. Here is the method: (§1) 40 mice were classified into five groups such that eight mice belonged to each group. After the habituation period, all mice were orally administered with a drug every day. While the mice of Groups 1 and 2 were administered with saline (p.o.), the mice of Groups 3, 4, and 5 were administered with 5 mg/kg ropinirole (p.o.), 5 mg/kg AKNS-2 (p.o.), and 15 mg/kg AKNS-2 (p.o.), respectively. From the 5th day therefrom, the mice of Group 1 were intraperitoneally administered with a saline at 1 hour after gavage feeding of saline, and the mice of Groups 2, 3, 4, and 5 were administered with 30 mg/kg MPTP (i.p.) at 1 hour after gavage feeding of saline, ropinirole, AKNS-2 (5 mg/kg), and AKNS-2 (15 mg/kg), respectively. Each mouse was administered with a single dose of saline/MPTP injection every day for 8 days. At 7 days after the final MPTP injection, all mice were sacrificed by cervical dislocation, and then the whole brain, SNpc, and striatum (ST) were excised for biochemical analysis.
(§2) On the 7th day after the last administration of MPTP, SNpc and ST of each mouse were carefully excised and stored at −80° C. until use. Thereafter, brain tissue of SNpc and ST was homogenized in a PRO-PREP™ lysis buffer (iNtRON, Gyeonggi, Korea) containing a phosphatase inhibitor cocktail set I (Sigma-Aldrich, Mo., USA). After shaking at 4° C. for 30 minutes, homogenates were centrifuged at 4° C. at 13000×g for 20 minutes, and a supernatant obtained therefrom was collected and added to a new 1.5 mL tube. A concentration of proteins contained in the supernatant was measured by the Bradford method. A part of the supernatant was mixed with the same volume of a loading buffer and denatured in a heater at 99° C. for 5 minutes for western blot analysis. The remaining supernatant was stored at −80° C. for subsequent tests for MAO-B activity and DA level using an ELISA kit.
Protein markers contained in lysates of the SH-SY5Y cells and brain tissue of the mice (SNpc and ST) were measured by western blot analysis. […] Then, proteins separated on the gel were transferred to a polyvinylidene fluoride (PVDF) membrane for 45 minutes using a Trans-Blot Turbo Transfer System (Bio-Rad, USA). The membrane was washed with tris-buffered saline with 0.1% Tween 20, TBST) for 5 minutes and then blocked by 5% skim milk dissolved in a TBST buffer. The membrane was further incubated with monoclonal primary antibodies derived from rabbits (anti-GAPDH, anti-AMPK, anti-p-AMPK, anti-ULK, anti-p-ULK555, anti-Erk, anti-p-Erk, anti-mTOR, anti-p-mTOR, anti-LC3B, anti-TH, and anti-α-synuclein antibodies). The primary antibodies were diluted in a blocking buffer at a ratio of 1:1000 and incubated overnight at 4° C. […] The intensity of the protein blots was quantified using Multi Gauge software (Fujifilm, Japan).

Assay [2] has as its system autophagy-related protein markers including LC3, p62, AMPK, Erk, ULK, and mTOR. Kind of assay: Western blot of autophagy-related protein markers in ST and SN of mice. It counts as in vivo, mice (C57BL/6j). The following applies: for expression of p-mTOR in ST / p-mTOR in SN: MPTP mice; for expression of p-ULK: ST and SN, vs MPTP. On the procedure: as §1, §2
Protein markers contained in lysates of the SH-SY5Y cells and brain tissue of the mice (SNpc and ST) were measured by western blot analysis. […] Then, proteins separated on the gel were transferred to a polyvinylidene fluoride (PVDF) membrane for 45 minutes using a Trans-Blot Turbo Transfer System (Bio-Rad, USA). The membrane was washed with tris-buffered saline with 0.1% Tween 20, TBST) for 5 minutes and then blocked by 5% skim milk dissolved in a TBST buffer. The membrane was further incubated with monoclonal primary antibodies derived from rabbits (anti-GAPDH, anti-AMPK, anti-p-AMPK, anti-ULK, anti-p-ULK555, anti-Erk, anti-p-Erk, anti-mTOR, anti-p-mTOR, anti-LC3B, anti-TH, and anti-α-synuclein antibodies). The primary antibodies were diluted in a blocking buffer at a ratio of 1:1000 and incubated overnight at 4° C. On the second day, the membrane was washed with TBST three times (10 minutes each) and incubated at room temperature in a horseradish peroxidase-conjugated goat anti-rabbit IgG secondary antibody (diluted in a blocking buffer at a ratio of 1:2000). After incubating in the secondary antibody for 1 hour, the membrane was washed for 30 minutes. The protein blots on the membrane were developed using an ECL detection kit and visualized using an LAS-4000 mini system (Fujifilm, Japan). The intensity of the protein blots was quantified using Multi Gauge software (Fujifilm, Japan).

The test system of assay [3] is DA level in ST. The experiment in a line: Measurement of DA level in ST (ELISA). It counts as in vivo, mice (C57BL/6j). As to conditions: MPTP 30 mg/kg mice. On the procedure:
40 mice were classified into five groups such that eight mice belonged to each group. After the habituation period, all mice were orally administered with a drug every day. While the mice of Groups 1 and 2 were administered with saline (p.o.), the mice of Groups 3, 4, and 5 were administered with 5 mg/kg ropinirole (p.o.), 5 mg/kg AKNS-2 (p.o.), and 15 mg/kg AKNS-2 (p.o.), respectively. […]
On the 7th day after the last administration of MPTP, SNpc and ST of each mouse were carefully excised and stored at −80° C. until use. […] A concentration of proteins contained in the supernatant was measured by the Bradford method. […]
DA levels in ST were measured using a competitive ELISA kit (Abnova, Taipei City, Taiwan) according to the manufacturer's instructions. […] After determining a concentration of proteins contained in the supernatant, the DA level in each brain sample was detected twice using the ELISA kit. Absorbance was measured using a microreader (BioTek, Vt., USA) at 450 nm, and the intensity was inversely proportional to the DA level. The DA level was expressed as ng/mg protein.

Assay [4] relates to MPTP-induced in vivo PD model. The experiment in a line: Wire hanging test. On the set-up: species or system mice (C57BL/6j). The following applies: MPTP mice. On the procedure:
In this study, all animal management and experimental protocols were performed in compliance with guidelines of the Institutional Animal Care and Use Committee of the Korea Institute of Science and Technology. 40 mice (C57BL/6j, male, 8 weeks old) were purchased from SLC Inc. (Shizuoka, Japan). After arrival, every four mice were hosed in each cage (30 cm×18.5 cm×13 cm) and allowed free access to feed and water. All mice were housed under the following constant conditions: lights on from 6:00 to 18:00, a temperature of 23° C.±1° C., and a humidity of 50%±10%. After 7 days of a habituation period, the mice were used in the experiments according to standard protocols. 40 mice were classified into five groups such that eight mice belonged to each group. After the habituation period, all mice were orally administered with a drug every day. […] Each mouse was administered with a single dose of saline/MPTP injection every day for 8 days. […] A time taken for the mouse to fall off the wire was recorded up to 300 seconds. On the day before MPTP administration, the test was performed three times for each mouse, and an average hanging time of three tests was analyzed as an index to evaluate balance, myofunction, and coordination. […] Average latency to fall off the wire onto the bedding material was calculated for each mouse.

Setting [5] is: both ST and SN, vs MPTP treatment.
Where [6] appears, read: both ST and SN, 5 mg/kg and 15 mg/kg p.o.
Where [7] appears, read: 15 mg/kg p.o., vs MPTP treatment.

In the case of `CCCN(CCC)CCc1cccc2c1CC(=O)N2` [ropinirole, reference compound], the α-synuclein level result in assay [1] (ST and SN, 5 mg/kg p.o.) is recorded as “a significant decrease in the α-synuclein level”. Moreover, the TH level entry in assay [1] (both ST and SN, 5 mg/kg p.o.) is listed as “considerably reversed”. Moreover, in assay [2], the “expression of p-mTOR in ST” value is on record as “clearly showed a tendency to decrease the expression of p-mTOR in ST” and the “p-mTOR in SN” value is reported as “a significant decrease in p-mTOR”. In assay [2] (ropinirole), the “expression of p-ULK” value is “significantly increased the expression of p-ULK in ST and SN”. The p-AMPK entry in assay [2] (setting [5]) was “induced a significant increase in p-AMPK in both ST and SN”. In addition, the “DA level in ST” value in assay [3] (5 mg/kg p.o.) is reported as “the decrease in the DA level induced by MPTP was restored”. Moreover, the “latency to fall off in wire hanging test” value in assay [4] (5 mg/kg p.o., 2 hours) was “improved latency deteriorated by MPTP”.

As for `C[C@@H]1O[C@@H](O[C@@H]2[C@@H](O)[C@H](O[C@@H]3[C@@H](O[C@@H]4OC[C@@H](O)[C@H](O)[C@H]4O)[C@@H](O)[C@H](O[C@H]4[C@H](OC(=O)[C@]56CCC(C)(C)C[C@H]5C5=CC[C@@H]7[C@@]8(C)C[C@H](O)[C@H](O[C@@H]9O[C@H](CO)[C@@H](O)[C@H](O[C@@H]%10OC[C@@H](O)[C@H](O)[C@H]%10O)[C@H]9O)[C@@](C)(CO)[C@@H]8CC[C@@]7(C)[C@]5(C)C[C@H]6O)OC[C@H](O)[C@@H]4O)O[C@H]3C)OC[C@H]2O)[C@H](O)[C@H](O)[C@H]1O` [Compound 1, 3-O-β-D-xylopyranosyl-(1→3)-β-D-glucopyranosylpolygalacic acid 28-O-α-L-rhamnopyranosyl-(1→3)-β-D-xylopyranosyl-(1→4)-[β-D-xylopyranosyl-(1→3)]-α-L-rhamnopyranosyl-(1→2)-α-L-arabinopyranosyl ester], in assay [1] (setting [6]), the α-synuclein level result is “a significant decrease in the α-synuclein level” and the TH level result is on record as “considerably reversed”. For the same compound, in assay [2] (setting [7]), the “expression of LC3-II in SN” value is “Although no noticeable difference was observed, increased expression of LC3-II was observed in SN” and the “expression of LC3-II in ST” value is listed as “induced a significant increase in the expression of LC3-II in ST”. In assay [2], the “expression of p-mTOR in ST” value is reported as “clearly showed a tendency to decrease the expression of p-mTOR in ST” and the “p-mTOR in SN” value is “a significant decrease in p-mTOR”. Moreover, in assay [2] (5 mg/kg and 15 mg/kg p.o.), the “expression of p-ULK” value is “significantly increased the expression of p-ULK in ST and SN”. Further, the p62 levels entry in assay [2] (both ST and SN, 5 mg/kg and 15 mg/kg p.o., vs MPTP-treated group) is recorded as “significantly decreased p62 levels”. Besides, the “expression of p-Erk” value in assay [2] (both ST and SN, 15 mg/kg p.o., vs MPTP treatment) was “significantly increased”. In addition, in assay [2] (setting [5]), the p-AMPK result was “induced a significant increase in p-AMPK in both ST and SN”. Also, the “DA level in ST” value in assay [3] (15 mg/kg p.o.) is on record as “the decrease in the DA level induced by MPTP was restored”. For the same compound, the “behavior performance in wire hanging test” value in assay [4] (15 mg/kg p.o., 2 hours and 24 hours) is on record as “impaired behavior performance was significantly improved”.
